These results are taken from patent US20140051678A1, “INHIBITORS OF THE ACTIVITY OF COMPLEX III OF THE MITOCHONDRIAL ELECTRON TRANSPORT CHAIN AND USE THEREOF FOR TREATING DISEASES” (STEMERGIE BIOTECHNOLOGY SA, priority 2010, published 2014).

The subject of series [1] is glioma-initiating cells (GICs). The series can be described thus: Short term dose response on gliomaspheres, cell death by FACS after trypan blue incorporation. The format is cell-based, human. To be noted: 50 μM, 48 hrs. The protocol: Short term dose response of the compound of Example 4 was performed according to the method as described in the patent application PCT no PCTIB2010/052237 (WO 2010/134039).
Briefly, gliomaspheres were dissociated, counted and plated at 10 cells/μl in DMEM-F12, 2% B27, 1% peni/strep, EGF and bFGF at 1 ng/ml. Cells were then treated with various amount of the compound for 48 hrs and cell death was analysed by FACS after incorporation of trypan blue (1/1000).
In general terms: A flow cytometer gives signals particle by particle.

The next series relates to U-87 MG cells. Nature of the series: MTT cytotoxicity / mitochondrial toxicity assay, glucose vs galactose medium, U-87 MG. In kind it is cell-based, Human. The following applies: for AC50: Homo sapiens. As to the method:
(§1) Human hepatocellular liver carcinoma cells (HepG2) or Human glioblastoma-astrocytoma, epithelial-like cells (U-87 MG) were plated on 96-well tissue culture treated polystyrene plates at 0.5×10^4 cells in 100 μL of Dulbecco's modified Eagle's medium containing either galactose or glucose supplemented with 10% foetal bovine serum and antibiotics per well. After 24 hr the cells are dosed with test compound at a range of concentrations and incubated for 72 nr. One hour prior to the end of the incubation period, the cells are loaded with MTT [yellow; 3-(4,5-dimethyl-2-thiazolyl)-2,5-diphenyl-2H-tetrazolium bromide], the plates are dried and re-solubilised using DMSO. The plates are then scanned using SpectraFluor Plus (TECAN).
(§2) To measure the relative sensitivity of HepG2 or U-87 MG cells grown in medium containing either galactose or glucose to the test compound.
(§3) Cytotoxicity was assessed using MTT. The assay provides a measurement of mitochondrial dehydrogenase activity and cell loss.
(§4) Cell Loss: A decrease can indicate a loss of cells indicating toxicity due to necrosis, apoptosis or a reduction in cellular proliferation.
(§5) Mitochondrial Activity: A decrease can also indicate an effect on mitochondrial function as mitochondrial dehydrogenases reduce the MTT [yellow; 3-(4,5-dimethyl-2-thiazolyl)-2,5-diphenyl-2H-tetrazolium bromide] to formazan. The formazan is detected in this assay (see assay protocol for details).
(§6) The AC50 is calculated from a four point logistic curve fit to determine percent survival of each test agent and control compound. The fold change is calculated from AC50 curve fit data by comparison with cells grown with glucose or galactose, A greater than 5-fold response in the presence of galactose indicates the compound is considered to be a mitochondrial toxicant.

A further series concerns HepG2 cells. The series can be described thus: MTT cytotoxicity / mitochondrial toxicity assay, glucose vs galactose medium, HepG2. The following applies: for AC50: Homo sapiens. The format is cell-based, Human. As to the method:
as §1, §2, §3, §4, §5, §6

Where two headings read alike, the source gives them in different places.

A word on the AC50: it is the concentration giving half of the maximal activity seen. Turning to `O=CNc1cccc(C(=O)NC2CCCCCCCC2)c1O` [Example 4, N-cyclononyl-3-formamido-2-hydroxybenzamide], the “fold increase cell death” value in series [1] is recorded as ≥ 1.2 fold. The “Fold Change (AC50 glucose vs galactose)” value is >70.1 in the series with U-87 MG cells (72 h) and 9.92 in the series with HepG2 cells (HepG2, 72 h). Further, the AC50 is 1410 nM in the series on U-87 MG cells (galactose medium, 72 h, MTT, read-out: Cell Loss - Galactose AC50); > 100000 nM in the series with U-87 MG cells (glucose medium, 72 h, MTT, read-out: Cell Loss - Glucose AC50); 2.4 µM with HepG2 cells (HepG2, galactose medium, 72 h, MTT, read-out: Cell Loss - Galactose AC50); 23.8 µM in the series on HepG2 cells (HepG2, glucose medium, 72 h, MTT, read-out: Cell Loss - Glucose AC50). In addition, the “Cell Loss - Galactose MEC” value is 1 µM with U-87 MG cells (galactose medium, 72 h, MTT) and 4 µM in the series on HepG2 cells (HepG2, galactose medium, 72 h, MTT). In addition, the “Cell Loss - Glucose MEC” value is >100 µM with U-87 MG cells (glucose medium, 72 h, MTT) and 10 µM in the series with HepG2 cells (HepG2, glucose medium, 72 h, MTT). Moreover, the “Mitochondrial Toxicant” value is on record as “Yes” in the series with U-87 MG cells (greater than 5-fold response in galactose = mitochondrial toxicant) and “Yes” in the series on HepG2 cells (HepG2, greater than 5-fold response in galactose = mitochondrial toxicant).
